Data: paper PMC4586312 (Nanomedicine : nanotechnology, biology, and medicine, 2015)

What was measured:
[1] = target: T1, cathepsin B (Homo sapiens, UniProt P07858); assay: fluorescence protease assay; format: biochemical
[2] = target: T1, cathepsin B; assay: fluorogenic substrate cleavage assay; format: biochemical

SMILES: CC(C)C[C@H](NC(=O)OCc1ccccc1)C(=O)N[C@H](C=O)C[C@@H]1CCNC1=O [GC-373]
- IC50 [1]: 9.67 nM

SMILES: Cc1cc(=O)oc2cc(NC(=O)[C@H](CCCNC(=N)N)NC(=O)[C@H](CC(C)C)NC(=O)OCc3ccccc3)ccc12 [Z-Leu-Arg-AMC]
- fluorogenic substrate cleavage assay [2]: The cleavage at the site between arginine and AMC dye by cathepsin B resulted in the increase of fluorescence intensity
